Results published in PubChem BioAssay AID248 (DTP/NCI, 2004).
Several values for one entry are separate records, joined by “and”; a condition that tells them apart may be missing. Equal values may be shown once. Toxic doses and inconclusive results are not listed. No stated cut-off is given here; in the data, active means T/C of 150% or more; inactive means T/C below 125%.

Tested on: L1210 leukemia ip in BDF1 mice, survival T/C
Experiment: NCI In Vivo Anticancer Drug Screen. Data for tumor model L1210 Leukemia (intraperitoneal) in B6D2F1 (BDF1) mice
Conditions: endpoint: mean survival time, higher = longer survival
Outline: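 Mice bearing the transplanted tumor received compound or vehicle. Survival of the treated group was divided by that of the vehicle-treated control group to give the ratio.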

[1] = dose: 100.0 mg/kg/injection, schedule: Q01DX001 (ip), vehicle: saline
[2] = dose: 200.0 mg/kg/injection, schedule: Q01DX001 (ip), vehicle: saline
[3] = dose: 100.0 mg/kg/injection, schedule: Q01DX009 (ip), vehicle: Klucel (hydroxypropylcellulose) (HPC)
[4] = dose: 100.0 mg/kg/injection, schedule: Q04DX003 (ip), vehicle: Klucel (hydroxypropylcellulose) (HPC)
[5] = dose: 100.0 mg/kg/injection, schedule: Q04DX003 (ip), vehicle: saline
[6] = dose: 100.0 mg/kg/injection, schedule: Q01DX001 (ip), vehicle: saline with Tween-80
[7] = dose: 200.0 mg/kg/injection, schedule: Q01DX001 (ip), vehicle: saline with Tween-80
[8] = dose: 200.0 mg/kg/injection, schedule: Q04DX003 (ip), vehicle: saline
[9] = dose: 400.0 mg/kg/injection, schedule: Q04DX003 (ip), vehicle: saline
[10] = dose: 400.0 mg/kg/injection, schedule: Q01DX001 (ip), vehicle: saline
[11] = dose: 400.0 mg/kg/injection, schedule: Q01DX001 (ip), vehicle: saline with Tween-80

Measured: T/C

N#[N+]c1nc[nH]c1C(N)=O
inactive: dose: 0.4 mg/kg/injection, schedule: Q03HX008 (ip), vehicle: steriod suspending solution 92 % of control | dose: 0.6 mg/kg/injection, schedule: Q03HX008 (ip), vehicle: steriod suspending solution 96 % of control | dose: 0.9 mg/kg/injection, schedule: Q03HX008 (ip), vehicle: steriod suspending solution 97 % of control | dose: 1.3 mg/kg/injection, schedule: Q03HX008 (ip), vehicle: steriod suspending solution 89 % of control | dose: 1.8 mg/kg/injection, schedule: Q03HX008 (ip), vehicle: steriod suspending solution 92 % of control | dose: 2.6 mg/kg/injection, schedule: Q03HX008 (ip), vehicle: steriod suspending solution 97 % of control | dose: 3.75 mg/kg/injection, schedule: Q01DX001 (ip), vehicle: steriod suspending solution 93 % of control | dose: 3.8 mg/kg/injection, schedule: Q03HX008 (ip), vehicle: steriod suspending solution 95 % of control | dose: 6.25 mg/kg/injection, schedule: Q01DX001 (ip), vehicle: steriod suspending solution 96 % of control | dose: 12.5 mg/kg/injection, schedule: Q01DX001 (ip), vehicle: steriod suspending solution 99 % of control

Cc1c(C(=O)OCCCl)c(=O)n(-c2ccccc2)n1C
inactive: [1] 98 % of control | [2] 98 % of control

CCN(CC)CCOC(=O)C(c1ccccc1)c1ccccc1
inactive: dose: 75.0 mg/kg/injection, schedule: Q01DX001 (ip), vehicle: saline 104 % of control | dose: 150.0 mg/kg/injection, schedule: Q01DX001 (ip), vehicle: saline 94 % of control

CC(C)(C)C1(C)CNC(=O)O1 (stereo unspecified)
inactive: dose: 6.0 mg/kg/injection, schedule: Q01DX009 (ip), vehicle: Klucel (hydroxypropylcellulose) (HPC) 100 % of control | dose: 12.0 mg/kg/injection, schedule: Q01DX009 (ip), vehicle: Klucel (hydroxypropylcellulose) (HPC) 104 % of control | dose: 25.0 mg/kg/injection, schedule: Q01DX009 (ip), vehicle: Klucel (hydroxypropylcellulose) (HPC) 102 % of control | dose: 25.0 mg/kg/injection, schedule: Q04DX003 (ip), vehicle: Klucel (hydroxypropylcellulose) (HPC) 102 % of control | dose: 50.0 mg/kg/injection, schedule: Q01DX009 (ip), vehicle: Klucel (hydroxypropylcellulose) (HPC) 101 % of control | dose: 50.0 mg/kg/injection, schedule: Q04DX003 (ip), vehicle: Klucel (hydroxypropylcellulose) (HPC) 102 % of control | [3] 101 % of control | [4] 95 % of control and 89 % of control

C/C(=N\[N+](C)(C)C)c1ccc(Br)cc1
inactive: dose: 12.5 mg/kg/injection, schedule: Q04DX003 (ip), vehicle: saline 109 % of control | dose: 25.0 mg/kg/injection, schedule: Q01DX009 (ip), vehicle: saline 92 % of control | dose: 25.0 mg/kg/injection, schedule: Q04DX003 (ip), vehicle: saline 100 % of control | dose: 50.0 mg/kg/injection, schedule: Q01DX009 (ip), vehicle: saline 91 % of control | dose: 50.0 mg/kg/injection, schedule: Q04DX003 (ip), vehicle: saline 104 % of control | dose: 100.0 mg/kg/injection, schedule: Q01DX009 (ip), vehicle: saline 91 % of control | [5] 102 % of control

COc1cc(Cl)ccc1N=CC(=O)c1ccc(C)cc1
inactive: dose: 12.5 mg/kg/injection, schedule: Q04DX002 (ip), vehicle: Klucel (hydroxypropylcellulose) (HPC) 94 % of control | dose: 25.0 mg/kg/injection, schedule: Q04DX002 (ip), vehicle: Klucel (hydroxypropylcellulose) (HPC) 87 % of control | dose: 50.0 mg/kg/injection, schedule: Q04DX002 (ip), vehicle: Klucel (hydroxypropylcellulose) (HPC) 115 % of control

Cc1cc(-c2ccc(NC(=O)Nc3cccc(C4=NCCN4)c3)c(C)c2)ccc1NC(=O)Nc1cccc(C2=NCCN2)c1
inactive: dose: 31.2 mg/kg/injection, schedule: Q01DX Z (ip), vehicle: methylcellulose (MC) 97 % of control | dose: 62.5 mg/kg/injection, schedule: Q01DX Z (ip), vehicle: methylcellulose (MC) 103 % of control | dose: 125.0 mg/kg/injection, schedule: Q01DX Z (ip), vehicle: methylcellulose (MC) 103 % of control

CCOC(=O)c1ccc(NCc2nnc3nc(N)[nH]c(=O)c3n2)cc1
inactive: dose: 50.0 mg/kg/injection, schedule: Q01DX001 (ip), vehicle: saline with Tween-80 102 % of control | [6] 96 % of control | [7] 98 % of control

CC(=O)OCCC/C(=C\c1ccc(N(C)C)cc1)[N+](=O)[O-]
inactive: dose: 100.0 mg/kg/injection, schedule: Q01DX001 (ip), vehicle: carboxymethylcellulose (CMC) 91 % of control | dose: 200.0 mg/kg/injection, schedule: Q01DX001 (ip), vehicle: carboxymethylcellulose (CMC) 91 % of control | dose: 400.0 mg/kg/injection, schedule: Q01DX001 (ip), vehicle: carboxymethylcellulose (CMC) 98 % of control

CCOC(=O)C1CC[N+](=c2cc(-c3ccc(Cl)cc3)ss2)CC1 (stereo unspecified)
inactive: [5] 95 % of control | [8] 96 % of control | [9] 101 % of control

Nc1cccc(OCCOc2cccc(S(=O)(=O)F)c2)c1
inactive: [1] 95 % of control | [2] 93 % of control | [10] 90 % of control

CCCCCCCC(O)CCCC (stereo unspecified)
inactive: [3] 100 % of control | [4] 95 % of control | dose: 200.0 mg/kg/injection, schedule: Q01DX009 (ip), vehicle: Klucel (hydroxypropylcellulose) (HPC) 104 % of control | dose: 200.0 mg/kg/injection, schedule: Q04DX003 (ip), vehicle: Klucel (hydroxypropylcellulose) (HPC) 103 % of control | dose: 400.0 mg/kg/injection, schedule: Q01DX009 (ip), vehicle: Klucel (hydroxypropylcellulose) (HPC) 104 % of control | dose: 400.0 mg/kg/injection, schedule: Q04DX003 (ip), vehicle: Klucel (hydroxypropylcellulose) (HPC) 98 % of control

COC(=O)NS(=O)(=O)C1=Cc2cccc3cccc1c23
inactive: dose: 100.0 mg/kg/injection, schedule: Q04DX002 (ip), vehicle: Klucel (hydroxypropylcellulose) (HPC) 103 % of control | dose: 200.0 mg/kg/injection, schedule: Q04DX002 (ip), vehicle: Klucel (hydroxypropylcellulose) (HPC) 100 % of control | dose: 400.0 mg/kg/injection, schedule: Q04DX002 (ip), vehicle: Klucel (hydroxypropylcellulose) (HPC) 113 % of control

CC1OC1COC1COC2C(OCC3OC3C)COC12 (stereo unspecified)
inactive: [1] 106 % of control | [2] 106 % of control | [10] 101 % of control

C/C(=N/N=C(N)N)c1cccnc1
inactive: dose: 15.0 mg/kg/injection, schedule: Q01DX Z (ip), vehicle: saline 106 % of control | dose: 30.0 mg/kg/injection, schedule: Q01DX Z (ip), vehicle: saline 106 % of control | dose: 60.0 mg/kg/injection, schedule: Q01DX Z (ip), vehicle: saline 108 % of control | dose: 120.0 mg/kg/injection, schedule: Q01DX Z (ip), vehicle: saline 93 % of control

Oc1ccc(-c2ccccc2)cc1O
inactive: [1] 105 % of control | [2] 109 % of control | [10] 109 % of control

Cc1cccc(Cl)c1NC(=O)CN(C)C
inactive: [1] 104 % of control | [2] 98 % of control

CCC1=C/C(=C/c2cccc(OC)c2O)C(=O)S1
inactive: [6] 97 % of control | [7] 97 % of control | [11] 87 % of control

O[C@@H]1CCC[C@H]1n1cnc2c(=S)nc[nH]c21
inactive: dose: 89.0 mg/kg/injection, schedule: Q04DX003 (ip), vehicle: saline with Tween-80 104 % of control | dose: 133.0 mg/kg/injection, schedule: Q04DX003 (ip), vehicle: saline with Tween-80 112 % of control

O=C(Nc1cccc2ccccc12)OCc1ccco1
inactive: [6] 96 % of control | dose: 100.0 mg/kg/injection, schedule: Q01DX009 (ip), vehicle: saline with Tween-80 93 % of control and 96 % of control | dose: 100.0 mg/kg/injection, schedule: Q04DX002 (ip), vehicle: saline with Tween-80 96 % of control and 118 % of control | dose: 100.0 mg/kg/injection, schedule: Q04DX003 (ip), vehicle: saline with Tween-80 105 % of control | [7] 97 % of control | dose: 200.0 mg/kg/injection, schedule: Q01DX009 (ip), vehicle: saline with Tween-80 100 % of control and 86 % of control | dose: 200.0 mg/kg/injection, schedule: Q04DX002 (ip), vehicle: saline with Tween-80 96 % of control and 91 % of control | dose: 200.0 mg/kg/injection, schedule: Q04DX003 (ip), vehicle: saline with Tween-80 100 % of control | [11] 103 % of control | dose: 400.0 mg/kg/injection, schedule: Q01DX009 (ip), vehicle: saline with Tween-80 93 % of control and 94 % of control | dose: 400.0 mg/kg/injection, schedule: Q04DX002 (ip), vehicle: saline with Tween-80 104 % of control | dose: 400.0 mg/kg/injection, schedule: Q04DX003 (ip), vehicle: saline with Tween-80 103 % of control

CCOC(=O)C(=O)Nc1ccc(Cl)cc1
inactive: [6] 96 % of control | [7] 96 % of control | [11] 95 % of control

CCOC(=O)NCCCNC(=O)OCC
inactive: [5] 95 % of control | [8] 103 % of control | [9] 97 % of control
